Key:
wheat, winter = assay: Test C postemergence; type: in vivo, Triticum aestivum
Procedure, shortened: (§1)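 Visual ratings on a 0–100 scale (100 = complete control) were made versus untreated controls after 13–15 greenhouse days. Chemicals in a surfactant-containing non-phytotoxic solvent were applied either preemergence to seeds in loam–sand soil or postemergence to 1- to 4-leaf plants 2–18 cm tall.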

pigweed [1] = assay: Test A preemergence; type: in vivo, Amaranthus retroflexus; settings: for Pigweed plant response rating: 500 g ai/ha
Procedure, shortened: (§2)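 Pre- and postemergence greenhouse screen. Soil: loam + sand. Spray carrier: solvent mixture, non-phytotoxic, with surfactant. Post timing at 1–2 leaves, height 2–10 cm. Readout: visual injury on a 0–100 scale roughly 10 days after application, untreated plants as reference.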

ragweed = assay: Test C preemergence; type: in vivo, Ambrosia elatior; settings: for Ragweed plant response rating: preemergence
Procedure, shortened: as §1

blackgrass [2] = assay: Test C preemergence; type: in vivo, Alopecurus myosuroides; settings: for Blackgrass plant response rating: preemergence; for Plant response rating, Blackgrass: Preemergence, 31 g ai/ha, scale 0 to 100, 0 no effect, 100 complete control
Procedure, shortened: as §1

chickweed = assay: Test C postemergence; type: in vivo, Stellaria media; settings: for Chickweed plant response rating / Plant response rating, Chickweed: scale 0 to 100 (0 no effect, 100 complete control)
Procedure, shortened: as §1

corn = assay: Test C postemergence; type: in vivo, Zea mays; settings: for Corn plant response rating / Plant response rating, Corn: scale 0 to 100 (0 no effect, 100 complete control)
Procedure, shortened: as §1

giant foxtail = assay: Test C postemergence; type: in vivo, Setaria faberii; settings: for Foxtail, Giant plant response rating / Plant response rating, Foxtail, Giant: scale 0 to 100 (0 no effect, 100 complete control)
Procedure, shortened: as §1

pigweed [3] = assay: Test C preemergence; type: in vivo, Amaranthus retroflexus; settings: for Pigweed plant response rating: preemergence
Procedure, shortened: as §1

large (Lg) crabgrass = assay: Test A preemergence; type: in vivo, Digitaria sanguinalis; settings: for Plant response rating, Crabgrass, Large: 125 g ai/ha; for Crabgrass, Large plant response rating: 500 g ai/ha
Procedure, shortened: as §2

blackgrass [4] = assay: Test C postemergence; type: in vivo, Alopecurus myosuroides; settings: for Blackgrass plant response rating / Plant response rating, Blackgrass: scale 0 to 100 (0 no effect, 100 complete control)
Procedure, shortened: as §1

barnyardgrass = assay: Test C postemergence; type: in vivo, Echinochloa crus-galli; settings: for Barnyardgrass plant response rating / Plant response rating, Barnyardgrass: scale 0 to 100 (0 no effect, 100 complete control)
Procedure, shortened: as §1

yellow nutsedge [5] = assay: Test C postemergence; type: in vivo, Cyperus esculentus
Procedure, shortened: as §1

morningglory = assay: Test C preemergence; type: in vivo, Ipomoea coccinea; settings: for Morningglory plant response rating: preemergence
Procedure, shortened: as §1

yellow nutsedge [6] = assay: Test C preemergence; type: in vivo, Cyperus esculentus; settings: for Nutsedge, Yellow plant response rating: preemergence
Procedure, shortened: as §1

soybean = assay: Test C preemergence; type: in vivo, Glycine max; settings: for Soybean plant response rating: preemergence
Procedure, shortened: as §1

wild oat = assay: Test C postemergence; type: in vivo, Avena fatua
Procedure, shortened: as §1

Italian ryegrass = assay: Test C preemergence; type: in vivo, Lolium multiflorum; settings: for Ryegrass, Italian plant response rating: preemergence
Procedure, shortened: as §1

[7] = 16 g ai/ha, postemergence, 0 is no effect, 100 is complete control
[8] = 31 g ai/ha, postemergence, visual rating, scale 0 to 100 (0 no effect, 100 complete control), 13 to 15 days
[9] = 125 g ai/ha, postemergence, visual rating, scale 0 to 100 (0 no effect, 100 complete control)
[10] = Postemergence, 62 g ai/ha, scale 0 to 100 (0 no effect, 100 complete control)
[11] = 0 to 100 scale where 0 is no effect and 100 is complete control
[12] = 16 g ai/ha, scale 0 to 100 (0 no effect, 100 complete control)
[13] = 62 g ai/ha, scale 0 (no effect) to 100 (complete control)
[14] = 125 g ai/ha, scale 0 (no effect) to 100 (complete control)
[15] = 31 g ai/ha, postemergence, visual rating, 13 to 15 days
[16] = 125 g ai/ha, postemergence, visual rating
[17] = Postemergence, 31 g ai/ha, scale 0 to 100 (0 no effect, 100 complete control), 13 to 15 days
[18] = 0 to 100 scale, 0 no effect, 100 complete control, approx. 10 days
[19] = Preemergence, 31 g ai/ha, scale 0 to 100, 0 no effect, 100 complete control
[20] = 16 g ai/ha, postemergence, visual rating, 13 to 15 days
[21] = Postemergence, 31 g ai/ha, 13 to 15 days

FC(F)(F)c1cnn(-c2c(Cl)cccc2Oc2ncc(Cl)cn2)c1 [Compound 167]
Plant response rating (0 to 100), Wheat (wheat, winter; [7]): 0
Wheat plant response rating (wheat, winter; [8]): 0
Plant response rating, Wheat (wheat, winter; [9]): 5
Plant response rating, Wheat (wheat, winter; [10]): 5
Pigweed plant response rating (0 to 100 scale) (pigweed [1]; 125 g ai/ha): 100
Pigweed plant response rating (pigweed [1]; [11]): 100
Ragweed plant response rating (ragweed; [12]): 15
Ragweed plant response rating (ragweed; [13]): 15
Ragweed plant response rating (ragweed; [14]): 20
Blackgrass plant response rating (blackgrass [2]; [12]): 30
Blackgrass plant response rating (blackgrass [2]; [13]): 90
Blackgrass plant response rating (blackgrass [2]; [14]): 90
Plant response rating, Blackgrass (blackgrass [2]): 30
Plant response rating (0 to 100), Chickweed (chickweed; [7]): 55
Chickweed plant response rating (chickweed; [15]): 80
Plant response rating, Chickweed (chickweed; [16]): 80
Plant response rating, Chickweed (chickweed; Postemergence, 62 g ai/ha): 70
Plant response rating (0 to 100), Corn (corn; [7]): 5
Corn plant response rating (corn; [15]): 5
Plant response rating, Corn (corn; [16]): 15
Plant response rating, Corn (corn; Postemergence, 62 g ai/ha): 10
Plant response rating (0 to 100), Foxtail, Giant (giant foxtail; [7]): 10
Foxtail, Giant plant response rating (giant foxtail; [15]): 10
Plant response rating, Foxtail, Giant (giant foxtail; [16]): 30
Plant response rating, Foxtail, Giant (giant foxtail; Postemergence, 62 g ai/ha): 10
Pigweed plant response rating (pigweed [3]; [12]): 100
Pigweed plant response rating (pigweed [3]; [13]): 100
Pigweed plant response rating (pigweed [3]; [14]): 100
Plant response rating, Crabgrass, Large (large (Lg) crabgrass; [11]): 100
Crabgrass, Large plant response rating (large (Lg) crabgrass; [11]): 100
Plant response rating (0 to 100), Blackgrass (blackgrass [4]; [7]): 0
Blackgrass plant response rating (blackgrass [4]; [15]): 5
Plant response rating, Blackgrass (blackgrass [4]; [16]): 30
Plant response rating, Blackgrass (blackgrass [4]; Postemergence, 62 g ai/ha): 5
Plant response rating (0 to 100), Barnyardgrass (barnyardgrass; [7]): 5
Barnyardgrass plant response rating (barnyardgrass; [15]): 5
Plant response rating, Barnyardgrass (barnyardgrass; [16]): 10
Plant response rating, Barnyardgrass (barnyardgrass; Postemergence, 62 g ai/ha): 10
Plant response rating (0 to 100), Nutsedge, Yellow (yellow nutsedge [5]; [7]): 0
Nutsedge, Yellow plant response rating (yellow nutsedge [5]; [8]): 0
Plant response rating, Nutsedge, Yellow (yellow nutsedge [5]; [9]): 20
Plant response rating, Nutsedge, Yellow (yellow nutsedge [5]; [10]): 5
Morningglory plant response rating (morningglory; [12]): 30
Morningglory plant response rating (morningglory; [13]): 50
Morningglory plant response rating (morningglory; [14]): 100
Nutsedge, Yellow plant response rating (yellow nutsedge [6]; [12]): 0
Nutsedge, Yellow plant response rating (yellow nutsedge [6]; [13]): 10
Nutsedge, Yellow plant response rating (yellow nutsedge [6]; [14]): 60
Soybean plant response rating (soybean; [12]): 10
Soybean plant response rating (soybean; [13]): 90
Soybean plant response rating (soybean; [14]): 90
Plant response rating (0 to 100), Oat, Wild (wild oat; [7]): 5
Oat, Wild plant response rating (wild oat; [8]): 25
Plant response rating, Oat, Wild (wild oat; [9]): 35
Plant response rating, Oat, Wild (wild oat; [10]): 35
Ryegrass, Italian plant response rating (Italian ryegrass; [12]): 5
Ryegrass, Italian plant response rating (Italian ryegrass; [13]): 80
Ryegrass, Italian plant response rating (Italian ryegrass; [14]): 90

CCOc1cnn(-c2c(C#N)cccc2Oc2ncc(Cl)cn2)c1 [Compound 92]
Plant response rating (0 to 100), Wheat (wheat, winter; 125 g ai/ha, postemergence): 5
Plant response rating, Wheat (wheat, winter; [17]): 0
Plant response rating, Wheat (wheat, winter; [10]): 0
Plant response rating, Pigweed (pigweed [1]; 125 g ai/ha, 0 to 100 scale where 0 is no effect and 100 is complete control): 100
Pigweed plant response rating (pigweed [1]; [18]): 100
Ragweed plant response rating (ragweed; [12]): 10
Ragweed plant response rating (ragweed; [13]): 50
Ragweed plant response rating (ragweed; [14]): 85
Plant response rating, Ragweed (ragweed; [19]): 5
Blackgrass plant response rating (blackgrass [2]; [12]): 0
Blackgrass plant response rating (blackgrass [2]; [13]): 70
Blackgrass plant response rating (blackgrass [2]; [14]): 90
Plant response rating, Blackgrass (blackgrass [2]): 5
Chickweed plant response rating (chickweed; [20]): 50
Plant response rating (0 to 100), Chickweed (chickweed; 125 g ai/ha, postemergence): 70
Plant response rating, Chickweed (chickweed; [21]): 60
Plant response rating, Chickweed (chickweed; Postemergence, 62 g ai/ha): 60
Corn plant response rating (corn; [20]): 5
Plant response rating (0 to 100), Corn (corn; 125 g ai/ha, postemergence): 5
Plant response rating, Corn (corn; [21]): 5
Plant response rating, Corn (corn; Postemergence, 62 g ai/ha): 5
Foxtail, Giant plant response rating (giant foxtail; [20]): 5
Plant response rating (0 to 100), Foxtail, Giant (giant foxtail; 125 g ai/ha, postemergence): 10
Plant response rating, Foxtail, Giant (giant foxtail; [21]): 5
Plant response rating, Foxtail, Giant (giant foxtail; Postemergence, 62 g ai/ha): 5
Pigweed plant response rating (pigweed [3]; [12]): 90
Pigweed plant response rating (pigweed [3]; [13]): 100
Pigweed plant response rating (pigweed [3]; [14]): 100
Plant response rating, Pigweed (pigweed [3]; [19]): 85
Plant response rating, Crabgrass, Large (large (Lg) crabgrass; [11]): 100
Crabgrass, Large plant response rating (large (Lg) crabgrass; [18]): 100
Blackgrass plant response rating (blackgrass [4]; [20]): 0
Plant response rating (0 to 100), Blackgrass (blackgrass [4]; 125 g ai/ha, postemergence): 35
Plant response rating, Blackgrass (blackgrass [4]; [21]): 0
Plant response rating, Blackgrass (blackgrass [4]; Postemergence, 62 g ai/ha): 10
Barnyardgrass plant response rating (barnyardgrass; [20]): 5
Plant response rating (0 to 100), Barnyardgrass (barnyardgrass; 125 g ai/ha, postemergence): 10
Plant response rating, Barnyardgrass (barnyardgrass; [21]): 5
Plant response rating, Barnyardgrass (barnyardgrass; Postemergence, 62 g ai/ha): 5
Plant response rating (0 to 100), Nutsedge, Yellow (yellow nutsedge [5]; 125 g ai/ha, postemergence): 5
Plant response rating, Nutsedge, Yellow (yellow nutsedge [5]; [17]): 5
Plant response rating, Nutsedge, Yellow (yellow nutsedge [5]; [10]): 5
Morningglory plant response rating (morningglory; [12]): 10
Morningglory plant response rating (morningglory; [13]): 98
Morningglory plant response rating (morningglory; [14]): 98
Plant response rating, Morningglory (morningglory; [19]): 25
Nutsedge, Yellow plant response rating (yellow nutsedge [6]; [12]): 5
Nutsedge, Yellow plant response rating (yellow nutsedge [6]; [13]): 50
Nutsedge, Yellow plant response rating (yellow nutsedge [6]; [14]): 75
Plant response rating, Nutsedge, Yellow (yellow nutsedge [6]; [19]): 5
Soybean plant response rating (soybean; [12]): 30
Soybean plant response rating (soybean; [13]): 80
Soybean plant response rating (soybean; [14]): 95
Plant response rating, Soybean (soybean; [19]): 65
Plant response rating (0 to 100), Oat, Wild (wild oat; 125 g ai/ha, postemergence): 15
Plant response rating, Oat, Wild (wild oat; [17]): 5
Plant response rating, Oat, Wild (wild oat; [10]): 10
Ryegrass, Italian plant response rating (Italian ryegrass; [12]): 0
Ryegrass, Italian plant response rating (Italian ryegrass; [13]): 50
Ryegrass, Italian plant response rating (Italian ryegrass; [14]): 85
Plant response rating, Ryegrass, Italian (Italian ryegrass; [19]): 10

From patent US9695155B2, “Herbicidal substituted pyrimidinyloxy benzene compounds” (E. I. DU PONT DE NEMOURS AND COMPANY, priority 2013, dated 2017)
